According to patent US5670331A, “Methods for optimizing fluoropyrimidine cancer therapy” (The University of Alabama Research Foundation, priority 1995, dated 1997):

Legend:
Type in all cases: biochemical
[1] = test system: Nucleoside Phosphorylase; assay: Pyrimidine nucleoside phosphorylase kinetics, human mononuclear cell sonicate; conditions: substrate of nucleoside phosphorylase, human mononuclear cells; for Km / Vmax: 37° C.
Protocol: (§1) All procedures are carried out at room temperature, using solutions preheated to 37° C. Blood samples were withdrawn in aliquots of 30 ml into 60 ml syringes, containing 5 ml heparin (1,000 Units/ml). Blood and heparin were immediately mixed by inverting the syringes. The mixture was layered onto HISTOPAQUE-1077 (15 ml), in a 50 ml conical centrifuge tube and centrifuged for 30 minutes at 400 ×g. The upper layer was then aspirated with a Pasteur pipet and discarded, while the opaque interface containing the mononuclear cells was aspirated into a fresh conical tube containing 10 ml growth medium (RPMI-1640 medium: 5% FBS:0.050M HEPES, pH 7.4) and mixed by inverting the tubes. The cells were pelleted by centrifugation for 10 minutes at 250 ×g then resuspended into fresh growth medium by gentle aspiration with a Pasteur pipet. After two more washing, the cells were suspended into 10 ml fresh growth media.
(§2) The following buffers were used: Buffer A (20 mM potassium phosphate, pH 8.0) and Buffer B (50 mM Tris-Cl, pH 7.5). Mononuclear cells were washed 2-3 times as described above except that buffer B was substituted for the growth medium. The cells were then sonicated (1:2 v/v) in buffer B using a sonic dismembrator (Fisher model 300). The sonicate was then used as the enzyme source.
(§3) Enzyme activities were determined isotopically as the products, nucleotides, nucleosides, bases, β-amino-acid, etc. formed from their respective radiolabeled substrates, bases and/or nucleosides. All assays were run at 37° C. under conditions where activity was linear with time and enzyme concentration. […] Reactions were started by the addition of extract and stopped by boiling in a water bath for 2 minutes followed by freezing. Precipitated proteins were removed by centrifugation. A 10-25 μl aliquot of the supernatant fluid was spotted on the appropriate TLC plate and developed in the appropriate solvent system. Separated substrate and product(s) were counted on a TLC Analyzer (Berthold). The amounts of substrate and product(s) were calculated on a percentage basis.
(§4) The assay mixture contained Buffer A, 33-600 μM radiolabeled nucleoside ([2-^14 C]uridine, [2-^14 C]thymidine or [2-^14 C]5-fluoro-2'-deoxyuridine), and 50 μl of sonicate in a final volume of 100 μl. After termination of the reaction and centrifugation, the nucleosides were separated from their respective nucleobases on silica gel TLC plate developed with chloroform:methanol:acetic acid (90:5:5 v/v/v). When assaying patients, the assay is run at about 226 μM 5-fluoro-2'-deoxyuridine, about 169 μM thymidine or about 114 μM uridine.
(§5) The apparent Km and Vmax, as well as the enzyme efficiency values were calculated using computer programs based on Wilkinson-Cleland procedures. Because of the number of patients used, a two-tailed t-test was applied to determine the degree of significance of the difference in enzymatic activities between healthy volunteers, tolerant and intolerant subjects.

[2] = test system: Nucleoside Kinases; assay: Pyrimidine nucleoside kinase kinetics, human mononuclear cell sonicate; conditions: substrate of nucleoside kinases, human mononuclear cells; for Km / Vmax: 37° C.
Protocol: as §1, §2, §3
(§6) The assay mixture contained 50 mM Tris-Cl, pH 7.4; 3-60 μM radiolabeled nucleoside ([2-^14 C]thymidine or [2-^14 C]5-fluoro-2'-deoxyuridine); 2.5 mM ATP; 5 mM creatine phosphate; 25 mM NaF; and 50 μl of sonicate to which was added a dash of phosphocreatine kinase in a final volume of 100 μl. After termination of the reaction and centrifugation, the supernatant was spotted on silica gel TLC plates. The plates were developed in a solution of chloroform:methanol:acetic acid (56:24:4, v/v/v) to separate the nucleosides which migrate with the front from the nucleotides which remain at the origin. When assaying patients, the assays are run at about 4.4 μM 5-fluoro-2'-deoxyuridine or about 6.4 μM thymidine.
as §5

[3] = test system: Nucleoside Phosphorylase; assay: Pyrimidine nucleoside phosphorylase kinetics, human liver; conditions: substrate of nucleoside phosphorylase; for Km / Vmax: 37° C.
Protocol: as §3, §4, §5

[4] = test system: Nucleoside Kinases; assay: Pyrimidine nucleoside kinase kinetics, human liver; conditions: substrate of nucleoside kinases; for Km / Vmax: 37° C.
Protocol: as §3, §6, §5

SMILES | Vmax /Km [1] [min^-1 × 10^3] | Km [1] [µM] | Vmax [1] [nmol/min/mg] | Vmax /Km [2] [min^-1 × 10^3] | Km [2] [µM] | Vmax [2] [nmol/min/mg] | Vmax /Km [3] [min^-1 × 10^3] | Km [3] [µM] | Vmax [3] [nmol/min/mg] | Vmax /Km [4] [min^-1 × 10^3] | Km [4] [µM] | Vmax [4] [nmol/min/mg]
O=c1ccn([C@@H]2O[C@H](CO)[C@@H](O)[C@H]2O)c(=O)[nH]1 [Uridine, uridine] | 3.79 | 114 | 0.431 | 7.00 | 40.3 | 0.027 | 172.00 | 99.1 | 1.703 | 0.55 | 55.8 | 0.031
O=c1[nH]c(=O)n([C@H]2C[C@H](O)[C@@H](CO)O2)cc1F [5-Fluoro-2'-deoxyuridine, 5-fluoro-2'-deoxyuridine] | 6.22 | 226 | 1.404 | 2.89 | 4.39 | 0.013 | 111.90 | 215 | 24.041 | 5.17 | 3.1 | 0.016
Cc1cn([C@H]2C[C@H](O)[C@@H](CO)O2)c(=O)[nH]c1=O [Thymidine, thymidine] | 6.34 | 168 | 1.068 | 2.40 | 6.45 | 0.015 | 76.15 | 256 | 19.471 | 4.00 | 6.41 | 0.025
O=c1[nH]c(=O)n([C@@H]2O[C@H](CO)[C@@H](O)[C@H]2O)cc1F [5-Fluorouridine] | – | – | – | – | – | – | 8.62 | 286 | 2.470 | 0.50 | 25.1 | 0.013
